Literature values, collected in PMC7397562 (Drug Design, Development and Therapy, 2020).

COc1ccc(-c2cc(=O)c3c(OC)c(OC)c(OC)c(OC)c3o2)cc1 [TAGE, tangeretin]
Oral absolute bioavailability (mean value): < 3.05%
